Counter-ions that a name gives are not always drawn.
Columns and labels:
[1] = pH of representative drugs suspended in water; type: physicochemical; conditions: for Acidity/Alkalinity: drug suspended in water; for pH when suspended in purified water (range over the concentrations of Table 1): range over tested solid contents
[2] = Drug release (dissolution) testing of TPR beads in two-stage medium, lag-time; type: physicochemical; conditions: expected from higher alkalinity, given coating conditions
Protocol: Dissolution testing of IR beads and enteric coated beads (for acid resistance testing) is conducted with a USP Apparatus 1 (baskets at 100 rpm) or Apparatus 2 (paddles at 50 rpm) in 900 mL of 0.1N HCl at 37° C. while the dissolution testing of TPR beads is conducted in a USP apparatus using a two-stage dissolution medium (first 2 hours in 700 mL of 0.1N HCl at 37° C. followed by dissolution testing at pH=6.8 obtained by the addition of 200 mL of pH modifier). Drug release with time is determined by HPLC on samples pulled at selected intervals.
Drug Release Testing: The drug release profiles were generated by dissolution testing per US Pharmacopoeia method (Apparatus 1 with baskets at 100 rpm or Apparatus 2 with paddles at 50 rpm) using 700 mL of p H 1.2 buffer for 2 hours followed by testing in 900 mL of pH 6.8 for the remaining time-points). The IR and enteric-coated beads were tested in 900 mL of 0.1N HCl for 1 and 1.5 hrs, respectively. The samples pulled at different time-points were quantified by HPLC.

[3] = drug concentration (solid content) 0.2 mg/mL in water
[4] = drug concentration (solid content) 2.0 mg/mL in water
[5] = drug concentration (solid content) 20 mg/mL in water
[6] = drug concentration (solid content) 0.1 mg/mL in water
[7] = drug concentration (solid content) 1.0 mg/mL in water
[8] = drug concentration (solid content) 10 mg/mL in water

SMILES | pH of Solution/Suspension [1, 3] | pH of Solution/Suspension [1, 4] | pH of Solution/Suspension [1, 5] | Acidity/Alkalinity [1] | pH when suspended in purified water (range over the concentrations of Table 1) [1] | pH of Solution/Suspension [1, 6] | pH of Solution/Suspension [1, 7] | pH of Solution/Suspension [1, 8] | lag time relative to nizatidine [2]
CC(C)NCC(O)COc1cccc2ccccc12 (stereo not shown) [Propranolol Hydrochloride] | pH = 5.7 | pH = 6.0 | pH = 6.5 | Acidic (exhibiting a pH of 7.0, or less, when suspended in water at a solid content of 2 mg/mL is designated as an acidic drug) | 5.7-6.5 |  |  |  | 
CN(C)CCC=C1c2ccccc2C=Cc2ccccc21 [Cyclobenzaprine Hydrochloride] |  |  |  | Acidic (exhibiting a pH of 7.0, or less, when suspended in water at a solid content of 2 mg/mL is designated as an acidic drug) |  | pH = 6.1 | pH = 6.5 | pH = 6.7 | 
CNC(=C[N+](=O)[O-])NCCSCc1csc(CN(C)C)n1 [Nizatidine] | pH = 6.5 | pH = 7.4 | pH = 8.7 | Alkaline (an API exhibiting a pH of 7.0, or greater, is designated as an alkaline drug) | 6.5-8.7 |  |  |  | 
CC(C)NCC(O)COc1ccc(CC(N)=O)cc1 (stereo not shown) [Atenolol] |  |  |  |  | 7.9-11.0 | pH = 7.9 | pH = 10.9 | pH = 11.0 | shorter lag time than nizatidine

— patent US11147772B2, “Timed, pulsatile release systems” (Adare Pharmaceuticals, Inc., priority 2005, dated 2021)
